# Results filed as inconclusive are left out. The source made the active and inactive calls. The rule behind the calls is not given here.
# Target: RNA-binding protein pos-1 (Caenorhabditis elegans) (UniProt G5EF15)
# Experiment: inhibitors of POS-1/mex-3 RNA binding, dose response, biochemical, fluorescence polarization (AID 1964)
# Conditions: POS-1/mex-3 RNA fluorescence polarization
# Sequence of RNA-binding protein pos-1 (Caenorhabditis elegans) (G5EF15 whole entry, looked up): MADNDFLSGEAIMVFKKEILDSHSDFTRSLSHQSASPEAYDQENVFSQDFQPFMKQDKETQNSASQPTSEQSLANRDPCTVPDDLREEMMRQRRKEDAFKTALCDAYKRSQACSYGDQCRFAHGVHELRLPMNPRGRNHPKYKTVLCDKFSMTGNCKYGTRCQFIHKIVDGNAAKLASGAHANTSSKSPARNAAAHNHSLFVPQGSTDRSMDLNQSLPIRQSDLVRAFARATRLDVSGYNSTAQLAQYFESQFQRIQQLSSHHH
row,Compound,IC50
1,Cc1cc(/C=C2/C(=O)NC(=O)N(Cc3ccco3)C2=O)c(C)n1-c1ccc(C(=O)O)cc1,> 30 µM (inactive)
2,C[C@H]1c2cccc(O)c2C(O)=C2C(=O)[C@]3(O)C(O)=C(C(N)=O)C(=O)[C@@H](N(C)C)[C@@H]3[C@@H](O)[C@@H]21,> 30 µM (inactive)
3,CCC(C)/C=C(C)/C=C/C1=CC2=C(Cl)C(=O)C(C)(OC(C)=O)C(=O)C2=CO1 (stereo not given),> 30 µM (inactive)
4,Cc1cc(/C=C2\C(=O)NC(=O)N(Cc3ccco3)C2=O)c(C)n1-c1ccc(C(=O)O)cc1,> 30 µM (inactive)
5,C[C@H]1c2cccc(O)c2C(O)=C2C(=O)[C@]3(O)C(O)=C(C(N)=O)C(=O)[C@@H](N(C)C)C3[C@@H](O)C21 (stereo not given in full),> 30 µM (inactive)
